Reference: patent US8835507B2, “Adamantane derivatives possessing anti-viral and anti-microbial activity” (priority 2012, dated 2014)
Converted amounts (≈) assume the structure as drawn. Where two headings read alike, the source gives them in different places.

What was measured:
[1] = system: Vaccinia virus, WR strain; conditions: for TC50: toxic concentration in the Vaccinia virus screen; for activity against vaccinia virus (in words): summary of Table 1
[2] = system: Vaccinia virus, WR strain; assay: microbe, parasite or virus in culture; conditions: Orthopoxvirus vaccinia
anthrax = assay: organism not typed; assay type: cell-based
E. coli = assay: microbe, parasite or virus in culture; assay type: cell-based; conditions: Escherichia coli
plague = assay: organism not typed; assay type: cell-based
B. anthracis (Ames) = assay: microbe, parasite or virus in culture; assay type: cell-based; conditions: Bacillus anthracis
Y. pestis (CO92) = assay: microbe, parasite or virus in culture; assay type: cell-based; conditions: Yersinia pestis
B. mallei (ATCC 23344) = assay: microbe, parasite or virus in culture; assay type: cell-based; conditions: Burkholderia mallei, ATCC23344
[3] = system: B. pseudomallei (ATCC 23342); assay: microbe, parasite or virus in culture; assay type: cell-based; conditions: Burkholderia pseudomallei, ATCC23342
F. tularensis (SCHU4) = assay: microbe, parasite or virus in culture; assay type: cell-based; conditions: Francisella tularensis
S. aureus (ATCC 29213) = assay: Test C: MIC against S. aureus (ATCC 29213); assay type: cell-based; conditions: Staphylococcus aureus, ATCC29213, CAMHB + IV
E. coli (ATCC 25922) = assay: Test C: MIC against E. coli (ATCC 25922); assay type: cell-based
[4] = system: P. aeruginosa (ATCC 27853); assay: Test C: MIC against P. aeruginosa (ATCC 27853); assay type: cell-based; conditions: Pseudomonas aeruginosa, ATCC27853, P. aeruginosa (ATCC 27853)

Row | SMILES | Comments (activity rating) ([1]; Vaccinia virus, WR strain) | TC50 [1] [µg/mL] | activity against vaccinia virus (in words) [1] | IC50 (Tacaribe virus) [µg/mL] | IC50 (Pichinde virus) [µg/mL] | IC50 [2] [µg/mL] | IC50 ([1]; Vaccinia virus, WR strain) [µg/mL] | MIC (anthrax) [µg/mL] | MIC (E. coli) [µg/mL] | MIC (plague) [µg/mL] | MIC (B. anthracis (Ames)) [µg/mL] | MIC (Y. pestis (CO92)) [µg/mL] | MIC (B. mallei (ATCC 23344)) [µg/mL] | MIC [3] [µg/mL] | MIC (F. tularensis (SCHU4)) [µg/mL] | MIC (S. aureus (ATCC 29213)) [µg/mL] | MIC (E. coli (ATCC 25922); CAMHB + IV) | MIC (E. coli (ATCC 25922); Escherichia coli, ATCC25922, CAMHB, read-out: MIC) [µg/mL] | MIC ([4]; CAMHB) [µg/mL] | MIC ([4]; CAMHB + IV) [µg/mL]
1 | Nc1ccn(C[C@@H](CO)OCP(=O)(O)O)c(=O)n1 [Cidofir, reference compound] | Inactive | >100 | – | – | – | – | – | – | – | – | – | – | – | – | – | – | – | – | – | –
2 | ClN(CCN(Cl)C12CC3CC(CC(C3)C1)C2)C12CC3CC(CC(C3)C1)C2 [Compound 7] | Moderate | 63.40 (≈ 160 µM) | moderate to high activity | 17 (≈ 42.8 µM) | 3.4 (≈ 8.55 µM) | 6.37 (≈ 16 µM) | – | – | – | – | – | – | – | – | – | – | – | – | – | –
3 | NC(=O)c1ncn([C@@H]2O[C@H](CO)[C@@H](O)[C@H]2O)n1 [Ribivirin, reference compound] | Moderate | >100 | – | – | – | – | 27.90 (≈ 114 µM) | – | – | – | – | – | – | – | – | – | – | – | – | –
4 | C(CNC12CC3CC(CC(C3)C1)C2)NC12CC3CC(CC(C3)C1)C2 [Compound 6] | Active | 5.58 (≈ 17 µM) | moderate to high activity | 6 (≈ 18.3 µM) | 11 (≈ 33.5 µM) | 0.32 (≈ 0.974 µM) | – | 1 to 4 (≈ 3.04 to 12.2 µM) | 4 to 8 (≈ 12.2 to 24.3 µM) | 4 (≈ 12.2 µM) | 0.25 (≈ 0.761 µM) | ≤ 0.06 | 2 (≈ 6.09 µM) | 2 (≈ 6.09 µM) | ≤ 0.06 | 1 | ≦0.06 ug/ml | ≤ 0.06 | 2 (≈ 6.09 µM) | 4
